Data published in US20080039531A1, “Compositions, and kits comprising targeted aldehyde or acetal protease inhibitor compounds for treating muscle disorders” (priority 2005, published 2008).
“And” between values parts separate entries of the source, which are not always exact repeats. Equal values may be shown once. “Also recorded” adds a separate entry of the source. Read-outs that look alike come from different tables or passages of the source.

How the values were obtained:
[1] = Monkey study, oral leupeptin: hematology, blood clotting, serum biochemistry; format: in vivo; conditions: monkeys, oral leupeptin 3, 6, 12, 18 mg/kg twice daily for 6 months after nerve repair
Protocol: Subsequent to the above studies another series of experiments were performed on the monkeys to assess another route of leupeptin administration in these animals (8). In this regard, oral delivery of leupeptin, after median nerve transection and epineural nerve repair, was studied for its potential benefits to neuromuscular recovery. […] When plasma leupeptin concentrations were 3 mg or greater, morphologic and functional motor recovery were facilitated after nerve repair.
Hematology/blood chemistry. Blood was drawn from the femoral vein at 1, 3, 4, 5, and 7 months postoperatively. Complete blood counts, clotting parameters, and serum chemistries in control animals and in animals after oral leupeptin administration at 3, 6, 12, and 18 mg/kg were quantified. Values were determined for hemoglobin, hematocrit, WBC, RBC, MCV, MCH, MCHC, differential (polymorphonuclear leukocytes, lymphocytes, monocytes, eosinophils, basophils), platelets, prothrombin time, partial thromboplastin time, glucose, urea nitrogen, creatinine, total protein, albumin, total bilirubin, alkaline phosphatase, SGPT, SGOT, lactic dehydrogenase, cholesterol, calcium, phosphorus, sodium, potassium, chloride, A/G, BUN/creatinine, globulin, amylase.

Duchenne patients = assay: Preliminary safety trial of oral leupeptin in DMD children; format: in vivo
Protocol: Leupeptin's low toxicity, non-immunogenicity and stability profile have made it a potential drug for eventual human use. In this regard, a preliminary safety trial of leupeptin in seven Italian DMD children with ages varying from 7-10 was performed. The trial was approved by the Italian Ministry of Health and the leupeptin supplied by the Nippon Kayaku Co., Japan. […] During the process of muscle degeneration, muscle cells break open and their contents find their way into the bloodstream. […] CK levels can be slightly elevated (500 U/L) in some nerve disorders, or grossly elevated (5,000 to 15,000 U/L) in DMD or inflammatory myopathies. Importantly the significant decline in CK levels after treatment with leupeptin indicates a significant improvement (lessening of muscle breakdown) in these individuals, especially in the child given 100 mg twice daily.

[2] = Absorption of leupeptin into plasma after intramuscular injection (FIG. 2); format: in vivo, rats; conditions: leupeptin 18 mg/kg intramuscular injection in hind-limbs
Protocol: To determine that leupeptin was effectively being absorbed into plasma following intramuscular (“IM”) administration in hind-limbs of 18 mg/kg, blood was withdrawn at 60, 75, 90, 120, 180 minutes and 24 hours after the IM injection (FIG. 2).

[3] = tested on: rat hind limb muscle (sciatic nerve denervation); conditions: for % loss (muscle atrophy due to denervation): rat
Protocol: Denervation was carried out on one of the hind limb sciatic nerves of the rat. Denervation was allowed to proceed for 7 days. Either leupeptin or CLA was injected 2×/day in forelimb muscle for seven days. The non-denervated hind limb was used as the control. Leupeptin and/or CLA were injected into alternating forelimb muscles for a period of seven days after which, animals were sacrificed, muscles excised and weighed.

calpain = assay: Calpain activities of muscle samples from leupeptin-treated MDX mice; format: in vivo, mouse; conditions: for Calpain activities of muscle samples, Anterior tibialis / Calpain activities of muscle samples, Diaphragm / Calpain activities of muscle samples, Gastrocnemius / Calpain activities of muscle samples, Soleus: mdx mice, average of 3 determinations
Protocol: It is well documented that as, observed in DMD and BMD, dystrophin is dysfunctional/absent in the murine MDX model of muscular dystrophy. […] A series of studies to test the ability of the calpain inhibitor, leupeptin, to delay and/or prevent features of calcium-induced damage to dystrophic myofibers was initiated. Control C57BL/10SNJ mice were treated with intramuscular injections of normal saline. The MDX mice were treated intramuscularly with either normal saline or 12 mg/kg leupeptin or 18 mg/kg leupeptin twice daily. All injections were delivered in the hind-limbs in various locations to avoid muscle damage due to repeated injections at the same location. The gastrocnemius, soleus, anterior tibialis, and diaphragm muscles were examined in all animals.
To further examine whether the beneficial/protective action of leupeptin was associated with a change in calpain activity, the activity of the enzyme was assessed in the muscle various muscles taken from the control, and MDX […]±treatment with leupeptin.

SMILES: CC(=O)N[C@@H](CC(C)C)C(=O)N[C@@H](CC(C)C)C(=O)N[C@H](C=O)CCCNC(=N)N [Leupeptin]
- hematology, blood clotting and serum biochemistry [1]: no adverse effects; also recorded: no significant differences
- muscle function tests vs start of trial (Duchenne patients; DMD children, at 6 months and one year): little decline in muscle strength
- blood chemistries over the year (Duchenne patients; DMD children, oral leupeptin for one year): no abnormalities
- CREATINE KINASE After 1 yr. (Duchenne patients; Duchenne patient, oral leupeptin 100 mg twice daily): 375 Units/100 ml
- CREATINE KINASE After 1 yr. (Duchenne patients; Duchenne patients (one line per patient), oral leupeptin 50 mg twice daily): 2,500 Units/100 ml (2×) and 4,100 Units/100 ml and 2,700 Units/100 ml and 3,300 Units/100 ml and 3,500 Units/100 ml
- tolerability / adverse effects (Duchenne patients; in vivo, po): well tolerated
- peak plasma level [2]: 4.5 µg/mL
- time of plasma peak [2]: 1 h
- concentration at 24 h ([2]; rat, plasma, 24 hr, read-out: plasma level by 24 hr): 0 ng/mL
- % loss (muscle atrophy due to denervation) ([3]; 1.5 mg/kg injected 2x/day for seven days): 30.9 ± 4%
- % loss (muscle atrophy due to denervation) ([3]; 15.0 mg/kg injected 2x/day for seven days): 2.6 ± 0.3%
- health / toxic effect in denervation study ([3]; rats, seven days of injections): remained healthy without any apparent negative toxic effect
- decrease in calpain activity vs untreated MDX muscles (calpain; anterior tibialis, 12 mg/kg): 50%
- decrease in calpain activity vs untreated MDX muscles (calpain; anterior tibialis, 18 mg/kg): 77%
- decrease in calpain activity vs untreated MDX muscles (calpain; diaphragm, 12 mg/kg): 51%
- decrease in calpain activity vs untreated MDX muscles (calpain; diaphragm, 18 mg/kg): 71%
- decrease in calpain activity vs untreated MDX muscles (calpain; gastrocnemius, 12 mg/kg): 84%
- decrease in calpain activity vs untreated MDX muscles (calpain; gastrocnemius, 18 mg/kg): 60%
- Calpain activities of muscle samples, Anterior tibialis (calpain; 12 mg/kg leupeptin): 155 ± 16 cpm/200-μg protein
- Calpain activities of muscle samples, Diaphragm (calpain; 12 mg/kg leupeptin): 26 ± 4 cpm/200-μg protein
- Calpain activities of muscle samples, Gastrocnemius (calpain; 12 mg/kg leupeptin): 27 ± 7 cpm/200-μg protein
- Calpain activities of muscle samples, Soleus (calpain; 12 mg/kg leupeptin): 187 ± 16 cpm/200-μg protein
- Calpain activities of muscle samples, Anterior tibialis (calpain; 18 mg/kg leupeptin): 71 ± 11 cpm/200-μg protein
- Calpain activities of muscle samples, Diaphragm (calpain; 18 mg/kg leupeptin): 17 ± 5 cpm/200-μg protein
- Calpain activities of muscle samples, Gastrocnemius (calpain; 18 mg/kg leupeptin): 67 ± 8 cpm/200-μg protein
- Calpain activities of muscle samples, Soleus (calpain; 18 mg/kg leupeptin): 102 ± 9 cpm/200-μg protein
- decrease in calpain activity vs untreated MDX muscles (calpain; soleus, 12 mg/kg): 44%
- decrease in calpain activity vs untreated MDX muscles (calpain; soleus, 18 mg/kg): 70%
